{
  "source": "ChEMBL document CHEMBL1139661",
  "about": "“Arylaminoethyl amides as noncovalent inhibitors of cathepsin S. Part 2: Optimization of P1 and N-aryl” (Bioorg Med Chem Lett, 2006)",
  "format_in_all_cases": "ADME, organism-based",
  "key": {"[1]": {"assay": "Oral bioavailability in Wistar rat at 10 mg/kg, po", "settings": "in vivo; call rule not given here"}, "[2]": {"assay": "AUC in Wistar rat at 10 mg/kg, po", "design": "dose 10 mg/kg, route oral", "settings": "plasma"}, "[3]": {"assay": "(§1) Half life in Wistar rat at 10 mg/kg", "design": "dose 10 mg/kg", "settings": "Wistar, in vivo"}, "[4]": {"assay": "Cmax in Wistar rat at 10 mg/kg, po", "design": "dose 10 mg/kg, route oral", "settings": "in vivo"}, "Rattus norvegicus": {"test_system": "Rattus norvegicus", "assay": "as §1", "design": "dose 10 mg/kg", "settings": "in vivo"}},
  "data": [
    {"molecule": "COc1cccc(C(=O)N[C@@H](CC(C)(C)C)C(=O)N[C@@H](CC(=O)O)CN2CCc3cc(F)ccc32)c1", "values": [
      {"measurement": "bioavailability", "setting": "[1]", "value": 2, "unit": "%"},
      {"measurement": "AUC", "setting": "[2]", "value": 100, "unit": "ng·h/mL"},
      {"measurement": "half-life", "setting": "[3]", "value": 33.6, "unit": "min"},
      {"measurement": "Cmax", "setting": "[4]", "value": 45, "unit": "nM"}
    ]},
    {"molecule": "CCOC(=O)C[C@@H](CN1CCc2cc(F)ccc21)NC(=O)[C@H](CCC1CCCCC1)NC(=O)c1cccc(OC)c1", "values": [
      {"measurement": "bioavailability", "setting": "[1]", "value": 8, "unit": "%"},
      {"measurement": "AUC", "setting": "[2]", "value": 308, "unit": "ng·h/mL"},
      {"measurement": "T1/2", "setting": "Rattus norvegicus", "value": "Not Active"},
      {"measurement": "Cmax", "setting": "[4]", "value": 293, "unit": "nM"}
    ]}
  ]
}
